Measurements as given in US10420813B2, “Competitive inhibitors of invariant chain expression and/or ectopic clip binding” (Regents of the University of Colorado, a body corporate, priority 2007, dated 2019).
No end group written: not given here.

Key:
[1] = background statement; cited from earlier work
[2] = system: cell surface CD74 on Raji cells; test: Cell surface CD74 by flow cytometry; assay type: cell-based, human; details: 24 and 48 hours
Description: (§1) The ability of MKN1 (bioCLIP) to alter cell surface CLIP and CD74 levels was determined using Raji or Daudi cells.
(§2) Data were analyzed by histogram with Y axis represents cell number of the 5000 live cells versus the X axis which is a reflection of relative FITC fluorescence with either antibodies to CLIP or CD74. The distance between the histogram from the isotype control staining versus the histogram reflecting the specific stain and is a measure of level of cell surface CLIP or CD74 when staining a population of live Raji or Daudi cells.
(§3) Cell Culture Conditions: The Raji and Daudi cell lines were purchased from American Type Culture Collection, were thawed, and grown in RPMI 1640 medium supplemented with standard supplements, including 10% fetal calf serum, gentamycin, penicillin, streptomycin, sodium pyruvate, HEPES buffer, 1-glutamine, and 2-ME.
(§4) Protocol: Cells were plated into a 12 well plate with 3 mls total volume containing approximately 0.5×10^6/mL for Daudi cells and 0.5×10^6/mL for Raji cells. […]
(§5) Harvested cells were stained using standard staining procedure that called for a 1:100 dilution of Fitc-anti-human CLIP or CD74 antibody (Fitc, Pharmingen, Cat #554647) or isotype control. […] Samples were acquired and analyzed on a Coulter Excel Flow Cytometer.

[3] = system: cell surface CD74 on Daudi cells; test: Cell surface CD74 by flow cytometry; assay type: cell-based, human; details: 24 and 48 hours
Description: as §1, §2, §3, §4, §5

[4] = system: cell surface CLIP on Raji cells; test: Cell surface CLIP by flow cytometry; assay type: cell-based, human; details: 24 and 48 hours
Description: (§6) Kinetics of CLIP displacement from the surface of model B cells lines (Daudi and Raji) in response to thymic nuclear protein mixture was determined.
(§7) Results were expressed in histogram analyses (FIG. 3). The Y axis represents cell number of the 5000 live cells versus the X axis which is a reflection of relative Fitc fluorescence. The distance between the histogram from the isotype control staining versus the histogram reflecting the specific stain is a measure of level of cell surface CLIP on a population of live Raji or Daudi cells as indicated. […]
(§8) Harvested cells were stained using standard staining procedure that called for a 1:100 dilution of Fitc-anti-human CLIP or isotype control. […] Samples were acquired and analyzed on a Coulter Excel Flow Cytometer.
as §1
(§9) Data were analyzed by histogram with Y axis represents cell number of the 5000 live cells versus the X axis which is a reflection of relative FITC fluorescence with either antibodies to CLIP or CD74. […]
(§10) Harvested cells were stained using standard staining procedure that called for a 1:100 dilution of Fitc-anti-human CLIP or CD74 antibody (Fitc, Pharmingen, Cat #554647) or isotype control. […] Samples were acquired and analyzed on a Coulter Excel Flow Cytometer. […]

[5] = system: cell surface CLIP on Daudi cells; test: Cell surface CLIP by flow cytometry; assay type: cell-based, human; details: 24 and 48 hours
Description: as §6, §7, §8, §1, §9, §10

[6] = system: cell surface CD1d on Daudi cells; test: Cell surface expression of CD1d; assay type: cell-based, human; details: 50 microMolar
Description: (§11) The ability of synthetic peptides to compete with binding of CLIP peptides and result in the cell surface expression of CD1d was determined.
(§12) Results: The results shown in FIG. 5 are expressed in histogram analyses. The Y axis represents cell number of the 5000 live cells versus the X axis which is a reflection of relative Fitc fluorescence versus Streptavidin-PE (eBioscience, Cat. #12-4317) that will bind with high affinity to cell-bound biotinylated peptides. The distance between the histogram from the isotype control staining versus the histogram reflecting the specific stain and is a measure of level of cell surface CD1d.
as §3
(§13) Protocol: Cells were plated into a 12 well plate with 3 mls total volume containing approximately 1.5×10^6/well for Daudi cells and 3.0×10^6/well for Raji cells. Treatment groups included no treatment as control and biotinylated […] (SEQ ID NO: 2) (also referred to as MKN 5) at 50 microMolar final concentration based on the reported molarity of the synthesized compounds.
(§14) The cells were incubated at 37° C. in an atmosphere containing 5% CO2 and approximately 92% humidity. The cells were incubated for 4 and 24 hours. At each time point, the cells from that experimental time were harvested and stained for flow cytometric analysis of cell surface expression of CD1d by staining with PE anti-human CD1d (eBioscience, clone 51.5, cat. #12-00016-71).
(§15) Harvested cells were stained using standard staining procedure that called for a 1:100 dilution of PE anti-CD1d. Following staining on ice for 25 minutes, cells were washed with PBS/FCS and resuspended in 100 microliters and added to staining tubes containing 400 microliters of PBS. Samples were acquired and analyzed on a Coulter Excel Flow Cytometer.

[7] = system: cell surface CD1d on Raji cells; test: Cell surface expression of CD1d; assay type: cell-based, human; details: 50 microMolar
Description: as §11, §12, §3, §13, §14, §15

Raji cells = test: Binding of biotinylated peptide to cells (Streptavidin-PE); assay type: cell-based, human; details: 50 microMolar
Description: as §11, §12, §3, §13, §14, §15

Daudi cells = test: as above; assay type: cell-based, human; details: 50 microMolar
Description: as §11, §12, §3, §13, §14, §15

C=CC[C@@H]1/C=C(\C)C[C@H](C)C[C@H](OC)[C@H]2O[C@@](O)(C(=O)C(=O)N3CCCC[C@H]3C(=O)O[C@H](/C(C)=C/[C@@H]3CC[C@@H](O)[C@H](OC)C3)[C@H](C)[C@@H](O)CC1=O)[C@H](C)C[C@@H]2OC [FK506, tacrolimus]
immunosuppressive activity relative to cyclosporin [1]: 10-100 times greater than cyclosporin

SGG GSK MRM ATP LLM QAL Y [MKN1 (bioCLIP)]
cell surface CD74 level [2]: alters | cell surface CD74 level [3]: alters | cell surface CLIP level [4]: alters | cell surface CLIP level [5]: alters

Biotinylated FRIMAVLAS: biotinylated FRIMAVLAS (SEQ ID NO: 2), also referred to as MKN 5 (also: biotinylated, position not given here)
cell surface expression of CD1d ([6]; 4 hours): marginally | cell surface expression of CD1d ([6]; 24 hours): slightly more | cell surface expression of CD1d ([7]; 4 hours): marginally | cell surface expression of CD1d ([7]; 24 hours): slightly more | binding of biotinylated peptide to cells (Raji cells; 4 hours): bound with high affinity | binding of biotinylated peptide to cells (Raji cells; 24 hours): Less binding | binding of biotinylated peptide to cells (Daudi cells; 4 hours): bound with high affinity | binding of biotinylated peptide to cells (Daudi cells; 24 hours): Less binding
